Reference: US10875834B2, “Prodrug and protected forms of 5-hydroxymethylfurfuranal (5-HMF) and its derivatives” (VIRGINIA COMMONWEALTH UNIVERSITY, priority 2016, dated 2020)
Values joined by “and” are separate entries in the source; they are usually repeats but may differ in a detail not shown here. Identical values can stand only once. “Also recorded” adds a separate entry of the source. Like-named read-outs stand apart in the source and are kept apart here.

Legend:
sickle Hb (Hb S) = biological target: T1, sickle Hb (Hb S) (Homo sapiens, UniProt P69905); test: Hb adduct formation study (Hb S modification) with SS cells, cation-exchange HPLC; assay type: cell-based; settings: for Modified Hb (%): 2 mM test compound, SS cells suspensions (20% hematocrit), mean ± SD, three experiments; for Hb modification relative to 5-HMF: 1, 2 and 5 mM
T1 construct: from tissue; host or cells: blood (red cells) of a subject with homozygous sickle cell disease; hemolysate analysed
Excerpt: (§1) The twelve compounds, VZHE004, VZHE006, VZHE007, VZHE005, VZHE011, VZHE013, VZHE014, VZHE015, VZHE016, 5-PMFC, 5-CMFC, 5-NMFC, and the parent compound (positive control) 5-HMF were investigated for their abilities to prevent hypoxia-induced RBC sickling (RBC morphology study), increase sickle Hb oxygen affinity (oxygen equilibrium curve; OEC study), and modify sickle Hb (adduct formation study) as previously published (Abdulmalik et al., Br. J Haematol., 2005, 128, 552; Safo et al, J. Med. Chem, 2004, 47, 4665). Briefly, blood suspensions from a subject with homozygous SCD (hematocrit: 20%) were incubated under air in the absence or presence of 1, 2 and 5 mM concentration of test compounds at 37° C. for 1 hr to ensure that binding had attained equilibrium. Following, the suspensions were incubated under hypoxic condition (4% oxygen/96% nitrogen) at 37° C. for 2 hr. Aliquot samples were fixed with 2% glutaraldehyde solution without exposure to air, and then subjected to microscopic morphological analysis. The residual samples were washed in phosphate-buffered saline, and hemolyzed in hypotonic lysis buffer for subsequent analyses.
(§2) For the OEC study, approximately 100 μl aliquot samples from clarified lysate obtained from the antisickling study were added to 4 ml of 0.1M potassium phosphate buffer, pH 7.0, in a cuvette and subjected to hemoximetry analysis using Hemox™ Analyzer (TCS Scientific Corp.) to assess P50 shifts. Finally, for the Hb adduct formation study, clarified lysates, also from the above antisickling study, were subjected to cation-exchange HPLC (Hitachi D-7000 Series, Hitachi Instruments, Inc., San Jose, Calif.), using a weak cation-exchange column (Poly CAT A: 30 mm×4.6 mm, Poly LC, Inc., Columbia, Md.).

[1] = test system: homozygous sickle red blood cells (SS cells); test: Antisickling (RBC morphology) study under hypoxia; assay type: cell-based, human
Excerpt: as §1

[2] = biological target: T2, sickle Hb oxygen affinity (Homo sapiens, UniProt P69905); test: Oxygen equilibrium curve (OEC) study, P50 shift of hemolysate from SS cells; assay type: cell-based; settings: for AP50 (%): 2 mM test compound, hemolysate of SS cells, mean ± SD, three experiments; for P50 shift relative to 5-HMF: 1, 2 and 5 mM
T2 construct: from tissue; host or cells: blood (red cells) of a subject with homozygous sickle cell disease; hemolysate analysed
Excerpt: as §1, §2

sickle cell disease = settings: phase I/II human clinical studies; cited from earlier work
[3] = both in-vitro and in-vivo; cited from earlier work
Hb A = biological target: T3, Hb A (Homo sapiens, UniProt P69905); test: Time-dependent adduct formation study in normal whole blood; assay type: in vitro ADME; settings: 2 mM, up to 24 hr
T3 construct: time-dependent studies on Hb adduct formation using normal whole blood; from tissue; host or cells: normal human whole blood (30% hct)
Procedure: The compounds, VZHE004, VZHE006, VZHE007, VZHE005, VZHE011, VZHE013, VZHE014, VZHE015, VZHE016, 5-PMFC, 5-NMFC, and the control 5-HMF were used to conduct time-dependent studies on Hb adduct formation using normal whole blood. The study was performed in a 96-well deepwell (Thermo Scientific) plate, where each compound at 2 mM concentration was added to 600 μL of whole blood (30% hct) and incubated at 37° C. for 24 hr with shaking (at 140 rpm). At 0.5 hr, 1 hr, 2 hr, 4 hr, 6 hr, 8 hr and 24 hr time intervals, 75 μL aliquot of blood was removed from each well using a multichannel pipette and added to respective tubes containing 75 μL of Na cyanoborohydride and borohydride mix (1:1 v/v 50 mM stock) to terminate the Schiff-base reaction, fix the Schiff-base adducts and reduce the reduce free reactive aldehyde (Davies et al., Food Chem. Toxicol. 2009, 47, 1950). We have previously optimized these conditions. After mixing, the tubes were stored immediately at −80° C. until ready for analysis to determine Hb adduct formation using cation-exchange HPLC (Hitachi D-7000 Series, Hitachi Instruments, Inc., San Jose, Calif.).

Hb = Hb (Homo sapiens, UniProt P69905); test: Incubation of Hb with VZHE004 for three days, UPLC-MS analysis; assay type: in vitro ADME; settings: incubated with Hb for three days
Excerpt: The overall tetrameric structure is indistinguishable (rmsd ˜0.4 Å) from 1BBB or the R2 structure in complex with 5-HMF (PDB code 1QXE). Like 5-HMF we also observed a pair of VZHE004 molecules covalently bound to the N-terminal αVal1 amines (Schiff-base interaction) in a symmetry-related fashion at the α-cleft (FIG. 7). The electron density of VZHE004 was relatively weak especially at the methyl acetate position. As such, the compound was refined as 5-HMF at the α1Val1 site, while the full VZHE004 was modelled at the α2Val1 binding site but with the methyl acetate refined in two alternate conformations (FIG. 7a). However, to make sure that the disorder is not due to partial hydrolytic cleavage of the ester, Hb and VZHE004 were incubated for three days.

[4] = Homo sapiens, Erythrocyte, 2 mM test compound, SS cells 20% hematocrit, hypoxia 4% oxygen/96% nitrogen, mean ± SD, read-out: Inhibition of Sickling (%)
[5] = Homo sapiens, Erythrocyte, 2 mM, read-out: RBC sickling inhibition
[6] = Homo sapiens, Erythrocyte, 5 mM, read-out: RBC sickling inhibition
[7] = 2 mM test compound, SS cells 20% hematocrit, hypoxia 4% oxygen/96% nitrogen, mean ± SD

T2 sequence (P69905 2-142 limits assumed): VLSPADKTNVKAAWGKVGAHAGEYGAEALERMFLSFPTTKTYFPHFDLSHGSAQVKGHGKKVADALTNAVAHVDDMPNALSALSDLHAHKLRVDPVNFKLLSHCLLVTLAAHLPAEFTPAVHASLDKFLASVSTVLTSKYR
T1 sequence (P69905 2-142 limits assumed): as above
T3 sequence (P69905 2-142 limits assumed): as above
T3 sequence (P68871 2-147 partner limits assumed): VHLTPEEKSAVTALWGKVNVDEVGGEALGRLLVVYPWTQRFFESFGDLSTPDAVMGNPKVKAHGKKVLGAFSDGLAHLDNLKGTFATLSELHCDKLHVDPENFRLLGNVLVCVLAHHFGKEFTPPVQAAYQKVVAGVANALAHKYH
Chain of Hb (P69905 2-142 limits assumed): as the sequence (P69905 2-142 limits assumed) above
Chain of Hb (P68871 2-147 partner limits assumed): as the sequence (P68871 2-147 partner limits assumed) above

Row | SMILES | Modified Hb (%) (sickle Hb (Hb S)) | inhibition at 2000 µM [1, 4] [%] | inhibition at 2000 µM [1, 5] [%] | antisickling effect ([1]; over 1, 2 and 5 mM) | AP50 (%) [2] [%] | P50 shift relative to 5-HMF [2] | inhibition at 5000 µM [1, 6] [%] | other results
1 | O=Cc1ccc(COc2ccc(Cl)cc2)o1 [Compound 5-CMFC, 5-((4-chlorophenoxy)methyl)-2-furan carbaldehyde] | 26.7 ± 6.5 | 2 ± 1.9 | < 10 | barely showed any antisickling activity; also recorded: poor antisickling effects | 13.2 ± 5.2 | significantly less P50 shift than 5-HMF; also recorded: lower degrees of shift than 5-HMF |  | antisickling effect ([1]; 5 mM): barely showed any antisickling effect
2 | O=Cc1ccc(CO)o1 [Compound 5-HMF, 5-hydroxymethyl-2-furfural, reference compound] | 32.8 ± 1.6 | 25.7 ± 4.4 | 26 |  | 33.4 ± 0.9 |  |  | effective dose (sickle cell disease): 2-4 gm; RBC sickling inhibition ([1]; 2 mM): ~23% and ~26%; half-life in plasma [3]: 1 to 1.5 h
3 | O=Cc1ccc(COc2ccccc2[N+](=O)[O-])o1 [Compound 5-NMFC, 5-((2-nitrophenoxy)methyl)-2-furan carbaldehyde] | 40.5 ± 17.6 | 10.3 ± 0.5 | < 10 | barely showed any antisickling activity; also recorded: poor antisickling effects | 13.4 ± 5.7 | significantly less P50 shift than 5-HMF; also recorded: lower degrees of shift than 5-HMF | < 10 | Hb modification relative to 5-HMF (sickle Hb (Hb S)): superior Hb modification; metabolic profile / decline of Hb adduct in whole blood (Hb A): exhibit some resistance to metabolism; antisickling effect ([1]; 5 mM): barely showed any antisickling effect
4 | O=Cc1ccc(COc2ccccc2)o1 [Compound 5-PMFC, 5-(phenoxymethyl)-2-furan carbaldehyde] | 60.53 ± 5.3 | 94.7 ± 0.1 |  |  | 45.4 ± 14.6 | better P50 sift than 5-HMF |  | Hb modification relative to 5-HMF (sickle Hb (Hb S)): superior Hb modification; metabolic profile / decline of Hb adduct in whole blood (Hb A): exhibit some resistance to metabolism; RBC sickling inhibition ([1]; 2 mM): ~95%; antisickling effect ([1]; 2 mM): attained maximum effect; inhibition at 1000 µM ([1]; Homo sapiens, Erythrocyte, 1 mM, read-out: RBC sickling inhibition): ~17%
5 | CC(=O)OCc1ccc(C=O)o1 [VZHE004, (5-formylfuran-2-yl)methyl acetate] | 43.5 ± 8.4 | 26.3 ± 4.4 |  |  | 44.6 ± 11.9 |  | 60 | RBC sickling inhibition ([1]; 5 mM): ~60%; stability of the ester against hydrolytic cleavage (UPLC-MS) (Hb): intact
6 | CC(C)(C)OC(=O)OCc1ccc(C=O)o1 [VZHE006, tert-Butyl ((5-formylfuran-2-yl)methyl) carbonate] | 50.0 ± 3.0 | 71.6 ± 0.1 | 35 to 95 |  | 44.8 ± 12.9 |  | > 95 | 
7 | O=Cc1ccc(COC(=O)c2ccccc2)o1 [VZHE007, (5-Formylfuran-2-yl)methyl Benzoate] | 44.5 ± 6.0 | 10 ± 5.9 |  | poor antisickling effects | 38.9 ± 11.9 |  | ~83 | 
8 | CCOCc1ccc(C=O)o1 [VZHE011, 5-(Ethoxymethyl)-2-furan Carboxadehyde] | 40.4 ± 3.9 | 58.8 ± 7 | 35 to 95 |  | 39.8 ± 0.8 |  |  | antisickling effect ([1]; 2 mM): superior
9 | CC(C)(C)OCc1ccc(C=O)o1 [VZHE013, 5-(tert-Butoxymethyl)furan-2-carbaldehyde] | 15.7 ± 4.3 | 7.4 ± 6.9 |  | very little antisickling activity; also recorded: barely showed any antisickling activity; also recorded: poor antisickling effects | 24.0 ± 5.6 | weaker |  | Hb modification relative to 5-HMF (sickle Hb (Hb S)): weaker adduct formation; sickling inhibition (antisickling effect) ([1]; at all three concentrations (1, 2 and 5 mM)): less than 5%; % P50 shift ([2]; 1 mM): 16%; % P50 shift ([2]; 2 mM): 24%; % P50 shift ([2]; 5 mM): 46%
10 | COP(=O)(OC)OCc1ccc(C=O)o1 [VZHE014, (5-Formylfuran-2-yl)methyl Dimethyl Phosphate] | 19.7 ± 6.3 |  |  | poor antisickling effects | 35.7 ± 8.1 |  |  | Inhibition of Sickling (%) [1, 7]: 8.4 ± 5.9%; RBC sickling inhibition ([1]; 5 mM): 43% and ~40%
11 | CCCOCc1ccc(C=O)o1 [VZHE015, 5-(Propoxymethyl)-2-furan Carboxadehyde] | 39.7 ± 8.2 | 62.9 ± 6.2 | 35 to 95 |  | 44.0 ± 9.7 |  |  | antisickling effect ([1]; 2 mM): superior
12 | CC(C)OCc1ccc(C=O)o1 [VZHE016, 5-(isopropoxymethyl)-2-furan Carboxadehyde] | 36.4 ± 9.7 |  |  |  | 38.4 ± 10.4 |  |  | RBC sickling inhibition ([1]; 2 mM): ~16%; Inhibition of Sickling (%) [1, 7]: 22.5 ± 8.8%
